{
  "source": "patent US20090131469A1",
  "about": "“PHARMACEUTICAL AGENT COMPRISING SOLIFENACIN” (ASTELLAS PHARMA INC., priority 2005, published 2009)",
  "key": {"[1]": {"test_system": "rat model of pollakiuria associated with neurogenic bladder due to cerebral infarction", "test": "Rat model of pollakiuria due to cerebral infarction (cystometry)", "format": "in vivo", "settings": "male SD rats with cerebral infarction; intravenous administration; 30 minutes after drug administration", "method": "Male SD rats (270 g to 320 g) were used for the test. After the rats were anesthetized with pentobarbital (50 mg/kg), a vesical fistula cannula and a cannula for drug administration were inserted and indwelled in the bladder and the jugular vein, respectively. A cannula was also inserted and indwelled in the common carotid vein for drug administration. Cerebral infarction was prepared according to the method of Longa et al. (Stroke, 1989, vol. 20, p. 84-91) 2 to 3 days after the surgery. Under halothane anesthesia, the cervical part was incised and a nylon thread was inserted from the common carotid artery to the internal carotid artery and the tip of the thread was carried forward to the origin of the middle cerebral artery and indwelled to induce cerebral ischemia. On the next day, neurological symptoms were observed and scored according to the method of Garcia, et al. (Stroke, 1995, Vol. 26, p. […]) and rats having moderate or more severe symptoms (with a score of 13 or less) were selected.\nAfter awakening from anesthesia, the rats were maintained in Bollman cages. The vesical fistula cannula was connected to a syringe pump via a three-way stopcock and physiological saline was continuously infused into the bladder to induce micturition reflex. Another end of the three-way stopcock was connected to a pressure transducer to measure intravesical pressure. After stabilization of micturition reflex, the test drug was administered through the catheter for drug dose inserted in the external carotid vein.\nThe volume of physiological saline required to induce a single micturition reflex at 30 minutes after drug administration, that is, bladder capacity and the voided volume per micturition were measured. The results are shown as mean±standard error.\nThe Student's t-test was used for a comparison between the sham surgery group and the cerebral infarction group and the Dunnett's multiple comparison test was used for a comparison between the group receiving drug administration and the group not receiving drug administration in the cerebral infarction group."}, "[2]": {"test_system": "patients with unstable bladder", "test": "Clinical study of urinary urgency, pollakiuria and urinary incontinence: patients with unstable bladder", "format": "in vivo, human", "method": "(§1) A clinical study was conducted in patients with urinary urgency, pollakiuria and urinary incontinence under the conditions described below. The causes of urinary urgency, pollakiuria and urinary incontinence were separated into neurogenic bladder (due to cerebral infarction or brain disorder due to brain contusion, peripheral neuropathy, and spinal cord disorder due to cervical or lumbar spondylosis, spondylitis deformans, cervical or lumbar spondylolisthesis, disk herniation, spinal stenosis and the like) and unstable bladder (without accompanying neurological diseases, urinary tract infections and calculi, irradiation history to the lumbar part and tumors in the pelvic organs that can be causal disease of detrussor hyperactivity) and analyses were done.\n(§2) Male and female patients aged 20 years or older who presented symptoms of urinary urgency, pollakiuria and urinary incontinence for 6 months or a longer period, the number of micturition per 24 hours was 8 on average or higher and satisfied at least one of the following conditions (1) and (2):\n(§3) (1) Having at least one episode of urge urinary incontinence per 24 hours on average (2) Having at least one episode of urinary urgency per 24 hours on average. Patients with stress urinary incontinence, psychogenic pollakiuria and the like were excluded. In addition, patients with complication of urinary tract infection, urinary calculi, interstitial cystitis, bladder tumor and the like were also excluded.\n(§4) Group P: Placebo (Sham drug) Group S5: 5 mg of solifenacin succinate (corresponding to 3.8 mg of solifenacin calculated as a free base) Group S10: 10 mg of solifenacin succinate (corresponding to 7.5 mg of solifenacin calculated as a free base) Group B: 20 mg of propiverine hydrochloride\n(§5) All the groups received oral administration once daily for 12 weeks."}, "[3]": {"test_system": "patients with neurogenic bladder", "test": "Clinical study of urinary urgency, pollakiuria and urinary incontinence: patients with neurogenic bladder", "format": "in vivo, human", "settings": "for improving effect on pollakiuria (in words) / improving effect on urinary incontinence (in words) / improving effect on urinary urgency (in words): solifenacin succinate 5 mg and 10 mg (Groups S5, S10), propiverine hydrochloride 20 mg (Group B), oral once daily for 12 weeks", "method": "as §1, §2, §3, §4, §5"}, "[4]": {"settings": "Group S5: 5 mg oral once daily for 12 weeks"}, "[5]": {"settings": "Group S10: 10 mg oral once daily for 12 weeks"}, "[6]": {"settings": "Group B: 20 mg oral once daily for 12 weeks"}},
  "note": "Counter-ions that a name gives are not always drawn.",
  "data": [
    {"smiles": "O=C(O[C@H]1CN2CCC1CC2)N1CCc2ccccc2[C@@H]1c1ccccc1", "note": "[solifenacin succinate, (3R)-quinuclidin-3-yl (1S)-1-phenyl-1,2,3,4-tetrahydroisoquinoline-2-carboxylate]", "values": [
      {"measurement": "doses that increased the bladder capacity", "setting": "[1]", "result": "≥ 0.03", "unit": "mg/kg"},
      {"measurement": "doses that increased the voided volume", "setting": "[1]", "result": "≥ 0.03", "unit": "mg/kg"},
      {"measurement": "Difference of change in the number of micturitions from that in Group P", "setting": "[2]; [4]", "result": "−1.02"},
      {"measurement": "Difference of change in the number of urinary incontinence episodes from that in Group P", "setting": "[2]; [4]", "result": "−0.85"},
      {"measurement": "Difference of change in the number of urinary urgency episodes from that in Group P", "setting": "[2]; [4]", "result": "−1.13"},
      {"measurement": "Mean change in the number of micturitions", "setting": "[2]; [4]", "result": "−1.93"},
      {"measurement": "Mean change in the number of urinary incontinence episodes", "setting": "[2]; [4]", "result": "−1.58"},
      {"measurement": "Mean change in the number of urinary urgency episodes", "setting": "[2]; [4]", "result": "−2.38"},
      {"measurement": "Difference of change in the number of micturitions from that in Group P", "setting": "[2]; [5]", "result": "−1.26"},
      {"measurement": "Difference of change in the number of urinary incontinence episodes from that in Group P", "setting": "[2]; [5]", "result": "−0.88"},
      {"measurement": "Difference of change in the number of urinary urgency episodes from that in Group P", "setting": "[2]; [5]", "result": "−1.56"},
      {"measurement": "Mean change in the number of micturitions", "setting": "[2]; [5]", "result": "−2.17"},
      {"measurement": "Mean change in the number of urinary incontinence episodes", "setting": "[2]; [5]", "result": "−1.61"},
      {"measurement": "Mean change in the number of urinary urgency episodes", "setting": "[2]; [5]", "result": "−2.81"},
      {"measurement": "Difference of change in the number of micturitions from that in Group P", "setting": "[3]; [4]", "result": "−0.56"},
      {"measurement": "Difference of change in the number of urinary incontinence episodes from that in Group P", "setting": "[3]; [4]", "result": "−1.19"},
      {"measurement": "Difference of change in the number of urinary urgency episodes from that in Group P", "setting": "[3]; [4]", "result": "−1.03"},
      {"measurement": "Mean change in the number of micturitions", "setting": "[3]; [4]", "result": "−2.04"},
      {"measurement": "Mean change in the number of urinary incontinence episodes", "setting": "[3]; [4]", "result": "−1.80"},
      {"measurement": "Mean change in the number of urinary urgency episodes", "setting": "[3]; [4]", "result": "−2.86"},
      {"measurement": "Difference of change in the number of micturitions from that in Group P", "setting": "[3]; [5]", "result": "−1.11"},
      {"measurement": "Difference of change in the number of urinary incontinence episodes from that in Group P", "setting": "[3]; [5]", "result": "−0.79"},
      {"measurement": "Difference of change in the number of urinary urgency episodes from that in Group P", "setting": "[3]; [5]", "result": "−0.60"},
      {"measurement": "Mean change in the number of micturitions", "setting": "[3]; [5]", "result": "−2.59"},
      {"measurement": "Mean change in the number of urinary incontinence episodes", "setting": "[3]; [5]", "result": "−1.40"},
      {"measurement": "Mean change in the number of urinary urgency episodes", "setting": "[3]; [5]", "result": "−2.43"},
      {"measurement": "improving effect on pollakiuria (in words)", "setting": "[3]", "result": "improving effect on pollakiuria was observed"},
      {"measurement": "improving effect on urinary incontinence (in words)", "setting": "[3]", "result": "improve all the symptoms of urinary urgency, pollakiuria and urinary incontinence"},
      {"measurement": "improving effect on urinary urgency (in words)", "setting": "[3]", "result": "improving effect on urinary urgency was observed"}
    ]},
    {"smiles": "CCCOC(C(=O)OC1CCN(C)CC1)(c1ccccc1)c1ccccc1", "note": "[propiverine hydrochloride, reference compound]", "values": [
      {"measurement": "doses that increased the bladder capacity", "setting": "[1]", "result": "≥ 1", "unit": "mg/kg"},
      {"measurement": "doses that increased the voided volume", "setting": "[1]", "result": "≥ 0.3", "unit": "mg/kg"},
      {"measurement": "Difference of change in the number of micturitions from that in Group P", "setting": "[2]; [6]", "result": "−0.99"},
      {"measurement": "Difference of change in the number of urinary incontinence episodes from that in Group P", "setting": "[2]; [6]", "result": "−0.50"},
      {"measurement": "Difference of change in the number of urinary urgency episodes from that in Group P", "setting": "[2]; [6]", "result": "−1.08"},
      {"measurement": "Mean change in the number of micturitions", "setting": "[2]; [6]", "result": "−1.90"},
      {"measurement": "Mean change in the number of urinary incontinence episodes", "setting": "[2]; [6]", "result": "−1.23"},
      {"measurement": "Mean change in the number of urinary urgency episodes", "setting": "[2]; [6]", "result": "−2.33"},
      {"measurement": "Difference of change in the number of micturitions from that in Group P", "setting": "[3]; [6]", "result": "+0.23"},
      {"measurement": "Difference of change in the number of urinary incontinence episodes from that in Group P", "setting": "[3]; [6]", "result": "−1.01"},
      {"measurement": "Difference of change in the number of urinary urgency episodes from that in Group P", "setting": "[3]; [6]", "result": "+0.18"},
      {"measurement": "Mean change in the number of micturitions", "setting": "[3]; [6]", "result": "−1.25"},
      {"measurement": "Mean change in the number of urinary incontinence episodes", "setting": "[3]; [6]", "result": "−1.62"},
      {"measurement": "Mean change in the number of urinary urgency episodes", "setting": "[3]; [6]", "result": "−1.65"},
      {"measurement": "improving effect on pollakiuria (in words)", "setting": "[3]", "result": "no improving effect on pollakiuria was observed"},
      {"measurement": "improving effect on urinary incontinence (in words)", "setting": "[3]", "result": "improved urinary incontinence"},
      {"measurement": "improving effect on urinary urgency (in words)", "setting": "[3]", "result": "improving effect on urinary urgency was not observed"}
    ]}
  ]
}
